Columns and labels:
Type in all cases: functional, cell-based
[1] = molecular target: T1, Thyroid hormone receptor alpha (Homo sapiens) (UniProt P10827); assay: Agonist activity at TRalpha-LBD expressed in HEK293 cells assessed as Gal4-DBD interaction by cellular mammalian one hybrid assay relative to thyroid
T1 sequence (whole entry): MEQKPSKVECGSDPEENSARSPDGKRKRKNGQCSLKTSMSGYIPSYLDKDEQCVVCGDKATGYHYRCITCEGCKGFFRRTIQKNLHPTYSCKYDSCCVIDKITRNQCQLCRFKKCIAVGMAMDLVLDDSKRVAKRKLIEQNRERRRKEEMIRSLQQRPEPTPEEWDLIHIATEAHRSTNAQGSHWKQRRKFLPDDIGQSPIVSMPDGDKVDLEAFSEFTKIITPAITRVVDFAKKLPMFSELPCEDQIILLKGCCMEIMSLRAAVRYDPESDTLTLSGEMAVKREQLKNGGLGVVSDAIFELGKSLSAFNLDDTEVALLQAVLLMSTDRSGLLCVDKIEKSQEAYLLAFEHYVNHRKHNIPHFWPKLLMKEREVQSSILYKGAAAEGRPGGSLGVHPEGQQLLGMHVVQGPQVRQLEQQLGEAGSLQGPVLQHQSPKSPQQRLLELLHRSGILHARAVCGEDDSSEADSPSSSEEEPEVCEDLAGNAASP

Glucocorticoid receptor = molecular target: T2, Glucocorticoid receptor (Homo sapiens, UniProt P04150); assay: Agonist activity at GR-LBD expressed in HEK293 cells assessed as Gal4-DBD interaction by cellular mammalian one hybrid assay
T2 sequence (P04150 whole entry): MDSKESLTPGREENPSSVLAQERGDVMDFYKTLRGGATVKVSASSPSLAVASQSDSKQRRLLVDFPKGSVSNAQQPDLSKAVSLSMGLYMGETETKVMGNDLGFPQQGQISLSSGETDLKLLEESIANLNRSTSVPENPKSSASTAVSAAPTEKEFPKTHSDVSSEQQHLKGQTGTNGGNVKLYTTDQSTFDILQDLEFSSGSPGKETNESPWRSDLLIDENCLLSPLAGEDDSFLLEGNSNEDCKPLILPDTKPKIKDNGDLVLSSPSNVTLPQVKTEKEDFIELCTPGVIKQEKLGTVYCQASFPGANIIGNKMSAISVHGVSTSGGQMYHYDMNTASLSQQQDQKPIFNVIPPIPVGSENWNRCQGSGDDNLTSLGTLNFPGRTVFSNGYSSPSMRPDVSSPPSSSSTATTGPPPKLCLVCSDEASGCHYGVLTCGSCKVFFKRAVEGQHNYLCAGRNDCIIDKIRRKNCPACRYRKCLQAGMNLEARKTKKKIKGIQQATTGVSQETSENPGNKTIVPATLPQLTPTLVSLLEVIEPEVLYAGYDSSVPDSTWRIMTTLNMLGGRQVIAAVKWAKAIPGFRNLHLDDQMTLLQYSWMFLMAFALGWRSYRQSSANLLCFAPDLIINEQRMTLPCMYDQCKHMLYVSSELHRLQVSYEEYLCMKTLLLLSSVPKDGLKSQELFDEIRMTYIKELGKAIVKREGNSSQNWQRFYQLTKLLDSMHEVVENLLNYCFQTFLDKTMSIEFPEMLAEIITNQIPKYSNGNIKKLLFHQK

[2] = molecular target: T3, Peroxisome proliferator-activated receptor delta (Homo sapiens) (UniProt Q03181); assay: Agonist activity at PPAR-beta/delta-LBD expressed in HEK293 cells assessed as Gal4-DBD interaction by cellular mammalian one hybrid assay relative to control
T3 sequence (whole entry): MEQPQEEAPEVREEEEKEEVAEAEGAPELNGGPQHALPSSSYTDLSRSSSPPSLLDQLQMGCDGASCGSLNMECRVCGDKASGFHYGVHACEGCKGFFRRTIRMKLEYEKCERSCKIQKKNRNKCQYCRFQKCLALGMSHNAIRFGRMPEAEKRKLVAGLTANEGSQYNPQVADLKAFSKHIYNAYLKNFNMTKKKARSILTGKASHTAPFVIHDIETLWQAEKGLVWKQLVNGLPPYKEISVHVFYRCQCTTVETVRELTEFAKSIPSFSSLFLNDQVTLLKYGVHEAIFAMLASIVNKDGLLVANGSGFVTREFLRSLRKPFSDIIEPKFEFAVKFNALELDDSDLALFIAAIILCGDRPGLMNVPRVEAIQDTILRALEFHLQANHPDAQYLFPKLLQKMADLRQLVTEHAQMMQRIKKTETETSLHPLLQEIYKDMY

[3] = molecular target: T4, Peroxisome proliferator-activated receptor gamma (Homo sapiens) (UniProt P37231); assay: Agonist activity at PPARgamma-LBD expressed in HEK293 cells assessed as Gal4-DBD interaction by cellular mammalian one hybrid assay relative to rosiglitazone
T4 sequence (whole entry): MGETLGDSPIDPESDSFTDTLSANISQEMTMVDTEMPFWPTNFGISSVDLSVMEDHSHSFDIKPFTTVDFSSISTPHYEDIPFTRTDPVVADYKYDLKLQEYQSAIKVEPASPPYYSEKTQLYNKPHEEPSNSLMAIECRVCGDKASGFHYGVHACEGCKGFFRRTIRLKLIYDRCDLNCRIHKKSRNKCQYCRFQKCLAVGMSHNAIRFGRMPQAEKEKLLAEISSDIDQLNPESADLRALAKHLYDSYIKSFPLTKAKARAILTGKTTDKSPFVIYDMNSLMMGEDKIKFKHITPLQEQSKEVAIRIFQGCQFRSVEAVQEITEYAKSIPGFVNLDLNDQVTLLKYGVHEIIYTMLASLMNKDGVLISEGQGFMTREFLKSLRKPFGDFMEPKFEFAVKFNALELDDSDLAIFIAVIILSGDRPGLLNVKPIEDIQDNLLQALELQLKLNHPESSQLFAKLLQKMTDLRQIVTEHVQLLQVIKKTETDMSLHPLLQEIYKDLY

[4] = molecular target: T5, CAR (nuclear receptor subfamily 1 group I member 3) (Homo sapiens, UniProt Q14994); assay: Agonist activity at CAR-LBD expressed in HEK293 cells assessed as Gal4-DBD interaction by cellular mammalian one hybrid assay relative to androstane; conditions: HEK293 cells expressing CAR-LBD, read-out: Efficacy
T5 sequence (Q14994 whole entry): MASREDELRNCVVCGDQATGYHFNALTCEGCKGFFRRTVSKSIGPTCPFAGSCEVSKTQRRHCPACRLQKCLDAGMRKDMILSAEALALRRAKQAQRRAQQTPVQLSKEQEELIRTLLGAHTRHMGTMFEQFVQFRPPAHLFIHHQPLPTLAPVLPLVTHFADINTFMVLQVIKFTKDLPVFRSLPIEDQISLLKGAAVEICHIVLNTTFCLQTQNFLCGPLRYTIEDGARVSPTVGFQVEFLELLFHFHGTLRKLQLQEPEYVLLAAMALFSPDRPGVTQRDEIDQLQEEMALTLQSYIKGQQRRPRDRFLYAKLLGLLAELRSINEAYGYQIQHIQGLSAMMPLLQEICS

Row | Efficacy [1] | EC50 (Glucocorticoid receptor) | Efficacy [2] | Efficacy [3] | Emax [4] | Compound
1 | 0% | > 10 µM | 0% | 0% | 0% | CN(Cc1ccc(C(=O)O)cc1)c1ccc(OCc2c(-c3c(Cl)cccc3Cl)noc2C2CC2)nc1C(F)(F)F
2 | 0% | > 10 µM | 0% | 0% | 0% | CC(C)c1onc(-c2c(Cl)cccc2Cl)c1COc1ccc(N(C)Cc2ccc(C(=O)O)cc2)c(C(F)(F)F)n1
3 | 0% | > 10 µM | 0% | 10% | 0% | CN(Cc1cccc(C(=O)O)c1)c1ccc(OCc2c(-c3c(Cl)cccc3Cl)noc2C2CC2)nc1C(F)(F)F

From ChEMBL document CHEMBL1208782, “Synthesis and pharmacological validation of a novel series of non-steroidal FXR agonists” (Bioorg Med Chem Lett, 2010)
